One experiment concerns menschliche Nase. The experiment can be described thus: Odour perception test on about 100 human subjects (agonist, antagonist, agonist again). In kind it is in vivo. The text has this:
An ca. 100 Probanden wurde die Wirkung des Agonisten (Bourgeonal, "Duft A") und des Antagonisten (n-Undecanal, "Duft B") getestet. Dabei wurde zuerst an Duft A (1:100 verdünnt) gerochen, dann wurde in kurzem zeitlichen Abstand (1 - 3 s) an Duft B (ebenfalls 1:100 verdünnt) gerochen, anschließend wurde direkt wieder an Duft A gerochen. Die Probanden wurden nach ihrem Riecheindruck befragt: • Alle 100 Probanden konnten beim jeweils ersten Riechen spezifisch Duft A und B wahrnehmen und unterscheiden. Ca. 90 der 100 Testpersonen beschrieben, dass beim zweiten Riechen an Duft A kein Dufteindruck ausgelöst wurde. Nach ca. 1 Minute war Duft A bereits wieder riechbar.

In a further experiment the test system is humane Spermien. In words: Sperm orientation towards capillary tip (CAVMA, circular statistics, Rayleigh test). It is filed as cell-based, human. The conditions noted are these: Bourgeonal 10^-8 M and higher. The text has this:
Zur Bestimmung der Chemoattraktion von Spermien und des Effekts eines Antagonisten wurde Bourgeonal allein bei 10^-7 M und in Kombination mit 10^-6, 10^-7, 10^-8 oder 10^-9 M n-Undecanal getestet. Während der Durchführung der Chemotaxis-Bioassays wurde das Spermienverhalten innerhalb eines Bereiches von 300 µm vor jeder Kapillarspitze 30 Sekunden lang auf Video aufgenommen. Die Videoaufnahme begann 10 bis 15 Minuten nach dem Experimentbeginn, um die Bildung eines chemischen Gradienten zu ermöglichen. Die Spermien-Orientierung zum Gradienten hin wurde unter Verwendung von CAVMA quantifiziert. Durch Anwendung zirkulärer Statistiken wurde die mittlere Vektorlänge (r) und die Schwimmrichtung berechnet, um das Bewegungsmuster der untersuchten Spermien zu beschreiben. Der Winkel der Spermienorientierung wurde in Bezug auf einen Ursprung angegeben, der als die kürzeste Verbindung zwischen jeder individuellen Zelle und der Kapillarenspitze (0°) definiert wurde. Um zu bestimmen, ob die Zellbewegung innerhalb des chemischen Gradienten nicht-zufällig war, wurde jede mittlere Ausrichtung mit einer uniformen zirkulären Verteilung unter Verwendung eines unimodalen Rayleigh-Tests (J. H. Zar, Biostatistical Analysis (1984)) verglichen.

Consider `CCCCCCCCCCC=O` [n-Undecanal], for which, in the experiment on menschliche Nase (Duft B 1:100 sniffed 1 - 3 s after Duft A 1:100, then Duft A again), the “Testpersonen ohne Dufteindruck beim zweiten Riechen an Duft A” value is “Ca. 90 der 100 Testpersonen”. Also, the “Zeit, nach der Duft A wieder riechbar war” value in the experiment on menschliche Nase (after sniffing Duft B) is reported as “ca. 1 Minute”.

As for `CC(C)(C)c1ccc(CCC=O)cc1` [Bourgeonal], the “Zellbewegungsmuster in der Nähe der Kapillarspitzen” value in the experiment with humane Spermien is listed as “signifikant nicht-zufällig”. Further, the “mittlere Vektorlänge (r), Rayleigh-Test” value in the experiment with humane Spermien (all comparisons) is ≥ 0,45.

For the origin of these results see patent EP1551873B1, “AGONISTS AND ANTAGONISTS OF THE HUMAN ODORANT RECEPTOR OR17-4 AND USES THEREOF” (Symrise AG, priority 2002, dated 2004).
